Converted amounts (≈) assume the structure as drawn. Like-named read-outs stand apart in the source and are kept apart here.
Experiments:
[1] = tested on: S. pneumoniae (SPNE 9912); assay: MIC, standard agar dilution method; type: cell-based; conditions: Streptococcus pneumoniae, incubated overnight at 35° C.
Protocol: (§1) MIC Test Method The in vitro MICs of test compounds were determined by a standard agar dilution method. […] Serial 2-fold dilutions of each sample are made using 1.0 ml aliquots of sterile distilled water. To each 1.0 ml aliquot of drug is added 9 ml of molten Mueller Hinton agar medium. The drug-supplemented agar is mixed, poured into 15×100 mm petri dishes, and allowed to solidify and dry prior to inoculation. Vials of each of the test organisms are maintained frozen in the vapor phase of a liquid nitrogen freezer. Test cultures are grown overnight at 35° C. on the medium appropriate for the organism. Colonies are harvested with a sterile swab, and cell suspensions are prepared in Trypticase Soy broth (TSB) to equal the turbidity of a 0.5 McFarland standard. A 1:20 dilution of each suspension is made in TSB. […] The plates are incubated overnight at 35° C. Following incubation the Minimum Inhibitory Concentration (MIC μg/ml), the lowest concentration of drug that inhibits visible growth of the organism, is read and recorded.

S. pyogenes (SPYO 152) = assay: MIC, standard agar dilution method; type: cell-based; conditions: Streptococcus pyogenes, incubated overnight at 35° C.
Protocol: as §1

E. Faecium (EFAE 12712) = assay: MIC, standard agar dilution method; type: cell-based; conditions: Enterococcus faecium; Table II; key: E. Faecium; agar dilution, Mueller Hinton agar, incubated overnight at 35° C.; read-out: EFAE 12712 MIC
Protocol: as §1

[2] = tested on: Moraxella catarrhalis (MCAT 30610); assay: MIC, standard agar dilution method; type: cell-based; conditions: Moraxella catarrhalis, Table II, Mueller Hinton agar, incubated overnight at 35° C.
Protocol: as §1

[3] = tested on: Haemophilus influenzae (HINF 30063); assay: MIC, standard agar dilution method; type: cell-based; conditions: Haemophilus influenzae, Table II, Mueller Hinton agar, incubated overnight at 35° C.
Protocol: as §1

[4] = tested on: Enterococcus faecalis (EFAE 9217); assay: MIC, standard agar dilution method; type: cell-based; conditions: incubated overnight at 35° C.
Protocol: as §1

S. aureus (SAUR 9213) = assay: MIC, standard agar dilution method; type: cell-based; conditions: Staphylococcus aureus, incubated overnight at 35° C.
Protocol: as §1

[5] = tested on: S. epidermidis (SEPI 30593); assay: MIC, standard agar dilution method; type: cell-based; conditions: Staphylococcus epidermidis, Table II, Mueller Hinton agar, incubated overnight at 35° C.
Protocol: as §1

[6] = tested on: S. epidermidis (SEPI 12084); assay: MIC, standard agar dilution method; type: cell-based; conditions: Staphylococcus epidermidis, Table 1, Mueller Hinton agar, incubated overnight at 35° C., read-out: Oxazolidinone MIC Values (Gram+) SEPI 12084
Protocol: MIC Test Method The in vitro MICs of test compounds were determined by a standard agar dilution method. A stock drug solution of each analog is prepared in the preferred solvent, usually DMSO:H2O (1:3). Serial 2-fold dilutions of each sample are made using 1.0 ml aliquots of sterile distilled water. To each 1.0 ml aliquot of drug is added 9 ml of molten Mueller Hinton agar medium. The drug-supplemented agar is mixed, poured into 15×100 mm petri dishes, and allowed to solidify and dry prior to inoculation. Vials of each of the test organisms are maintained frozen in the vapor phase of a liquid nitrogen freezer. Test cultures are grown overnight at 35° C. on the medium appropriate for the organism. Colonies are harvested with a sterile swab, and cell suspensions are prepared in Trypticase Soy broth (TSB) to equal the turbidity of a 0.5 McFarland standard. A 1:20 dilution of each suspension is made in TSB. […] The plates are incubated overnight at 35° C. Following incubation the Minimum Inhibitory Concentration (MIC μg/ml), the lowest concentration of drug that inhibits visible growth of the organism, is read and recorded.

[7] = Table 1, Mueller Hinton agar, read-out: Oxazolidinone MIC Values (Gram+) SPNE 9912
[8] = Table II, Mueller Hinton agar, read-out: SPNE 9912 MIC
[9] = Table 1, Mueller Hinton agar, read-out: Oxazolidinone MIC Values (Gram+) SPYO 152
[10] = Table II, Mueller Hinton agar, read-out: SPYO 152 MIC
[11] = Enterococcus faecalis, Table 1, Mueller Hinton agar, read-out: Oxazolidinone MIC Values (Gram+) EFAE 9217
[12] = Table II, key: Enterococcus faecalis, Mueller Hinton agar, read-out: EFAE 9217 MIC
[13] = Table 1, Mueller Hinton agar, read-out: Oxazolidinone MIC Values (Gram+) SAUR 9213
[14] = Table II, Mueller Hinton agar, read-out: SAUR 9213 MIC

Row | Compound | MIC [1, 7] | MIC [1, 8] | MIC (S. pyogenes (SPYO 152); [9]) | MIC (S. pyogenes (SPYO 152); [10]) | MIC (E. Faecium (EFAE 12712)) | MIC [2] | MIC [3] | MIC [4, 11] | MIC [4, 12] | MIC (S. aureus (SAUR 9213); [13]) | MIC (S. aureus (SAUR 9213); [14]) | MIC [5] | MIC [6] | melting point
1 | NC(=S)NC[C@H]1CN(c2ccc(N3CCOCC3)c(F)c2)C(=O)O1 [Example 5, (S)-N-[[3-[3-Fluoro-4-(4-morpholinyl)phenyl]-2-oxo-5-oxazolidinyl]methyl]thiourea] | < 0.125 µg/mL | < 0.125 µg/mL | 0.25 µg/mL (≈ 0.705 µM) | 0.25 µg/mL (≈ 0.705 µM) | 0.5 µg/mL (≈ 1.41 µM) | 2 µg/mL (≈ 5.64 µM) | 4 µg/mL (≈ 11.3 µM) | 0.5 µg/mL (≈ 1.41 µM) | 0.5 µg/mL (≈ 1.41 µM) | 1 µg/mL (≈ 2.82 µM) | 1 µg/mL (≈ 2.82 µM) | 0.5 µg/mL (≈ 1.41 µM) | 0.25 µg/mL (≈ 0.705 µM) | 199 to 199.5 °C
2 | CNC(=S)NC[C@H]1CN(c2ccc(N3CCOCC3)c(F)c2)C(=O)O1 [Example 6, (S)-N-[[3-[3-Fluoro-4-(4-morpholinyl)phenyl]-2-oxo-5-oxazolidinyl]methyl]-N′-methylthiourea] | 0.5 µg/mL (≈ 1.36 µM) | 0.5 µg/mL (≈ 1.36 µM) | 1 µg/mL (≈ 2.71 µM) | 1 µg/mL (≈ 2.71 µM) | 2 µg/mL (≈ 5.43 µM) | 8 µg/mL (≈ 21.7 µM) | 16 µg/mL (≈ 43.4 µM) | 2 µg/mL (≈ 5.43 µM) | 2 µg/mL (≈ 5.43 µM) | 2 µg/mL (≈ 5.43 µM) | 2 µg/mL (≈ 5.43 µM) | 2 µg/mL (≈ 5.43 µM) | 1 µg/mL (≈ 2.71 µM) | 158 to 160 °C

— patent US6537986B2, “Oxazolidinone antibacterial agents having a thiocarbonyl funtionality” (Pharmacia & Upjohn Company, priority 1997, dated 2003)
